Data taken from article PMC7544095, “Human ABCB1 with an ABCB11-like degenerate nucleotide binding site maintains transport activity by avoiding nucleotide occlusion” (PLoS Genetics, 2020).
Read-outs that look alike come from different tables or passages of the source.

Legend:
[1] = target: T1, ABCB1 E556M (catalytic glutamate mutant) (Homo sapiens, UniProt P08183, E556M); assay: Hoechst 33342 and calcein-AM accumulation assay in NIH 3T3 cells (transport activity factor); assay type: cell-based
T1 construct: expressed in transfected cells
T1 sequence (P08183 whole entry E556M): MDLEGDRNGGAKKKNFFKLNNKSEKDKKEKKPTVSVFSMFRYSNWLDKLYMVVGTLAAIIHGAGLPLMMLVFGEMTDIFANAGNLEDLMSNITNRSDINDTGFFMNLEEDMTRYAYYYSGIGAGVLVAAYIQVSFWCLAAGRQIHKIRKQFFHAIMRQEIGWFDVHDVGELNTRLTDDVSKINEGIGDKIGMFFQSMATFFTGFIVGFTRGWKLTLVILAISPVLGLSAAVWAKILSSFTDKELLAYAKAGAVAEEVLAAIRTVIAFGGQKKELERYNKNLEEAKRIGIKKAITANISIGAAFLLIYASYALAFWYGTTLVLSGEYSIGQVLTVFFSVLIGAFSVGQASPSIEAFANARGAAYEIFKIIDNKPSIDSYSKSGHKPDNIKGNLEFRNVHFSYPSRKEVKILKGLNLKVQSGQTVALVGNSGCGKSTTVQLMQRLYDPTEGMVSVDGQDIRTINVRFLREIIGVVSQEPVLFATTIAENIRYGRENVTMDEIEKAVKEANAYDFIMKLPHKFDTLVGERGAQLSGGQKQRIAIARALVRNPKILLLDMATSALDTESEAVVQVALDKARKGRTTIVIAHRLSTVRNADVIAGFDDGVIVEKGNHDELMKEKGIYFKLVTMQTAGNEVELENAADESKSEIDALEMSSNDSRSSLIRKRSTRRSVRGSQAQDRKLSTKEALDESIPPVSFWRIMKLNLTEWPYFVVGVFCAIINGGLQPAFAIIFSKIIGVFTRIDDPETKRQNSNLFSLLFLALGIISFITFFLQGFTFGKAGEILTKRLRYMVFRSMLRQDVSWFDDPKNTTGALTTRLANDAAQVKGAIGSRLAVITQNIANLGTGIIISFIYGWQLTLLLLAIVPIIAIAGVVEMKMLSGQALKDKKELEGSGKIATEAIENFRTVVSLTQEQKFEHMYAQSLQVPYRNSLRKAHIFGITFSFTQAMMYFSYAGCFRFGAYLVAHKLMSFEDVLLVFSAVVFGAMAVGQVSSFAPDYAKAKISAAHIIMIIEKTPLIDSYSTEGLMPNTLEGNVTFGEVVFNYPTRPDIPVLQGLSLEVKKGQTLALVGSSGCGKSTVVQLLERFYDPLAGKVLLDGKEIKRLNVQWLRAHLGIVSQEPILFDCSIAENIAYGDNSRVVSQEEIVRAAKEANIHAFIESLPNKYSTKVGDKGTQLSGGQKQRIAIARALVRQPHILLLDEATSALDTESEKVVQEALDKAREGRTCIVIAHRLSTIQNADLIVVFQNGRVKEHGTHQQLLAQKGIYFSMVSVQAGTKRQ
Description: (§1) For measurement of the transport activity of the mutant ABCB1 variants a cell based Hoechst 33342 and calcein-AM accumulation assay was used. Cells (5 × 10^5 ml^-1) in gl-HEPES (20 mM HEPES, 123 mM NaCl, 5 mM KCl, 1.5 mM MgCl2, 1 mM CaCl2, 7 mM glucose) for Hoechst 33342 assay or in gl-PBS for calcein-AM assay were pre-incubated in the presence or absence of specific ABCB1 inhibitor (tariquidar (1 μM)) for 10 min at 37°C and then were loaded with different concentrations of Hoechst 33342 (5.0, 1.0, 0.5, 0.1 and 0.025 μM) and calcein-AM (0.5, 0.25, 0.1, 0.05 and 0.025 μM) for 30 min. The samples were washed with ice-cold HEPES or PBS buffer containing 0.5% FBS at 300 × g for 5 min and were kept on ice until flow cytometric measurement. Dead cells were excluded from the analysis on the basis of PI staining. The transport activity of the ABCB1 variants was described by the Transport Activity Factor (TAF) calculated according to the following formula: TAF = (MFinh−MFI0)/MFIinh, wherein MFIinh and MFI0 are the mean fluorescence intensity values measured in the presence and absence of ABCB1 inhibitor, respectively.
(§2) Intracellular Hoechst 33342 and calcein accumulation was measured using a Becton Dickinson FACSAria III Cell Sorter (Becton Dickinson, Mountain View, CA, USA). Hoechst 33342 was excited with a 365 nm UV laser and the emitted blue light was detected using a 445/40 band pass filter. Calcein was excited with a 488 nm blue laser and fluorescence was detected using a 502 long pass dichroic mirror and a 530/20 band pass filter. PI was excited by the 562 nm line of a solid-state laser and the emitted light was detected applying a 590 nm dichroic mirror and a 595/50 nm band-pass filter.

[2] = target: T2, ABCB1 quadruple mutant (S474E, E556M, G1178R, Q1180E) (Homo sapiens, UniProt P08183, E556M/G1178R/Q1180E/S474E); assay: as above; assay type: cell-based
T2 construct: expressed in transfected cells
T2 sequence (P08183 whole entry S474E/E556M/G1178R/Q1180E): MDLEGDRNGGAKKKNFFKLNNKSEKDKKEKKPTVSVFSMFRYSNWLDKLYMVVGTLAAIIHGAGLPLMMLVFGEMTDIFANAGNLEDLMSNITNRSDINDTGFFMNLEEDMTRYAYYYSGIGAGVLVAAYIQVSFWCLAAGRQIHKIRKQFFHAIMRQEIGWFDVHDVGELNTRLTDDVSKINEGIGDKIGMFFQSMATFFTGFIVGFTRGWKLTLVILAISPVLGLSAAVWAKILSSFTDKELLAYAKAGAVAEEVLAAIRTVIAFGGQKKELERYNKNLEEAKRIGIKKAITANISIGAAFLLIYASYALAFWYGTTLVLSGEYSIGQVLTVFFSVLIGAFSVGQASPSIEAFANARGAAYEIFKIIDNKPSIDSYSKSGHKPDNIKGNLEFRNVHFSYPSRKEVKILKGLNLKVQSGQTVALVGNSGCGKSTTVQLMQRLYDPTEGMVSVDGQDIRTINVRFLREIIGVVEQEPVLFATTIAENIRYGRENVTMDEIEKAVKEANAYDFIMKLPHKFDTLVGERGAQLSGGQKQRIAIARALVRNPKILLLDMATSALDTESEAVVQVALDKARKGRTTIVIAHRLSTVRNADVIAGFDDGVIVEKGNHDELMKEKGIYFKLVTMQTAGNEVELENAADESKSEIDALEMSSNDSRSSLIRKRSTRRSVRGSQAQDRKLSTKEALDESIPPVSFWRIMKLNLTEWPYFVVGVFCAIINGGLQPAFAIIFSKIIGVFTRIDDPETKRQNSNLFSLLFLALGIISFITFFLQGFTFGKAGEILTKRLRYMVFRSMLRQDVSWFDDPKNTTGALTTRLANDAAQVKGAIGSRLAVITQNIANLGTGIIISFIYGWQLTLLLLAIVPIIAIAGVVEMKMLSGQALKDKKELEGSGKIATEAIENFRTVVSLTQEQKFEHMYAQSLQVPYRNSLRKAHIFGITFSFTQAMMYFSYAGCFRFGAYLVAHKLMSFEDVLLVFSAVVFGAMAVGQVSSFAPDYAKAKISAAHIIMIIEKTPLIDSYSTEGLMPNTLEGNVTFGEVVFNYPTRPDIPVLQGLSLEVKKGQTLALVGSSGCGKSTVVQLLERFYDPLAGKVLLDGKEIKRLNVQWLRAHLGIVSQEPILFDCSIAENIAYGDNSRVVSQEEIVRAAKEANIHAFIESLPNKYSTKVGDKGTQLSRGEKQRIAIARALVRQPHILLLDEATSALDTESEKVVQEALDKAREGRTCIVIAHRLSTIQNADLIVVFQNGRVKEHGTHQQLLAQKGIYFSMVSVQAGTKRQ
Description: as §1, §2

[3] = target: T1, ABCB1 E556M (catalytic glutamate mutant); assay: MgATP dependent UIC2 binding in permeabilized NIH 3T3 cells (apparent nucleotide affinity); assay type: cell-based
Description: (§3) NIH 3T3 cells (1 × 10^7 cells/ml) were treated with 300 U/ml streptolysin O (SLO, Sigma-Aldrich, Budapest) in the presence of 10 mM DL-Dithiothreitol (DTT), protease inhibitor cocktail (Sigma-Aldrich, Budapest, Hungary) and 100 μg/ml phenylmethanesulfonyl fluoride (PMSF) in phosphate-buffered saline (PBS) containing 1% fetal bovine serum (FBS-PBS) at 37°C for 30 min, allowing permeabilization of approximately 60–80% of the cells (judged by propidium iodide (PI) staining). The reaction was stopped with 10 ml ice-cold FBS-PBS and the cells were centrifuged for 5 min at 525 × g at 4°C. Unbound toxin was removed by washing the cells 3 times with FBS-PBS and the cell pellet was re-suspended in FBS-PBS.
(§4) Apparent affinity of nucleotide binding (KA) was determined as it is described in Barsony et al.. Briefly, MgATP was added in a broad concentration range to permeabilized cells (1 × 10^6 cells/ml) in the presence or absence of 0.5 mM vanadate (Vi) for 30 min at 37°C. Then the samples (without washing) were further incubated with 10 μg/ml UIC2-A647 mAb for another 30 min at 37°C. Following antibody labeling, samples were washed 3 times with ice-cold FBS-PBS and re-suspended in ice-cold FBS-PBS containing 3 μg/ml PI. The UIC2-A647 fluorescence intensity of the PI positive cells was measured by flow cytometry and plotted as a function of the nucleotide concentration. To determine the apparent affinity of ABCB1 to the nucleotides (KA) data points were fitted with the four-parameter Hill function, where Fmin and Fmax values are the minimum and maximum fluorescence intensities.

[4] = target: T2, ABCB1 quadruple mutant (S474E, E556M, G1178R, Q1180E); assay: as above; assay type: cell-based
Description: as §3, §4

wild-type ABCB1 [5] = target: T3, wild-type ABCB1 (Homo sapiens, UniProt P08183); assay: as above; assay type: cell-based
T3 construct: expressed in transfected cells
T3 sequence (P08183 whole entry): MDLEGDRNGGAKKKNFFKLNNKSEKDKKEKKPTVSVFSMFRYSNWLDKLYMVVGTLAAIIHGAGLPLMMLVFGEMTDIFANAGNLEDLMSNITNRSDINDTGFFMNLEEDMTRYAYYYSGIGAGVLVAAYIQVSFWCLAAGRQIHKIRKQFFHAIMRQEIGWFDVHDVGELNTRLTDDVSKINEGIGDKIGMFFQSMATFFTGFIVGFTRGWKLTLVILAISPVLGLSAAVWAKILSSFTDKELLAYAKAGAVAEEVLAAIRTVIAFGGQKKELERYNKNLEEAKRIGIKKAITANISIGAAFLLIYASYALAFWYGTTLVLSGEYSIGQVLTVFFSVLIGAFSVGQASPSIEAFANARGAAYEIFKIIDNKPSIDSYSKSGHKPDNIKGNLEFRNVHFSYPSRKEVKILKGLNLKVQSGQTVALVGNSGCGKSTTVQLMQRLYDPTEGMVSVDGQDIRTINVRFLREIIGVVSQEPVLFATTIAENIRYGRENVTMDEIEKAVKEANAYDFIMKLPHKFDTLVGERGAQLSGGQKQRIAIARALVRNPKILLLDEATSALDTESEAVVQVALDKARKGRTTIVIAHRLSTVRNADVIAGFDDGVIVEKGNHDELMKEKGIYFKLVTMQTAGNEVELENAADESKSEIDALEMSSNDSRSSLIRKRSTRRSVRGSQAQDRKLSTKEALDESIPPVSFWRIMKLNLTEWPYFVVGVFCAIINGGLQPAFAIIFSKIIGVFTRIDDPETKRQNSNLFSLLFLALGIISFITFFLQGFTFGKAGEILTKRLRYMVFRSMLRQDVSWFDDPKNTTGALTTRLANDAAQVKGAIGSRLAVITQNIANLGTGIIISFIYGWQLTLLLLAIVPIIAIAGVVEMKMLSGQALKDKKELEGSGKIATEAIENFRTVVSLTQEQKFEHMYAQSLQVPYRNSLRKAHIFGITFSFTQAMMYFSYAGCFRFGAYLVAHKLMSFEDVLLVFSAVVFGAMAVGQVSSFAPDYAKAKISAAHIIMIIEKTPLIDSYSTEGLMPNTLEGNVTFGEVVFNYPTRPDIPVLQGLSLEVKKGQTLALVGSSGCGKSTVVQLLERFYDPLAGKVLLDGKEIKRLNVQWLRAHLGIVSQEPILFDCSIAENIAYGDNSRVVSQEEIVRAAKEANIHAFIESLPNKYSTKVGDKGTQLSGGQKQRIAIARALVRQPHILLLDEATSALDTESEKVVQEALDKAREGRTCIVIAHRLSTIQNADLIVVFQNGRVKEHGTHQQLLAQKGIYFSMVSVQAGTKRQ
Description: as §3, §4

ABCB1 = tested on: ABCB1; set-up: method as in PMID 11121420; details: reported values; read-out: KM for ATP hydrolysis; cited from earlier work
wild-type ABCB1 [6] = target: T3, wild-type ABCB1; assay: Hoechst 33342 and calcein-AM accumulation assay in NIH 3T3 cells (transport activity factor); assay type: cell-based; details: wild-type ABCB1 expressing cells, 30 min, 37°C
Description: as §1, §2

SMILES: O=C(O)CN(CC(=O)O)Cc1cc2c(cc1O)Oc1cc(O)c(CN(CC(=O)O)CC(=O)O)cc1C21OC(=O)c2ccccc21 [calcein]
- transport activity [1]: abolished transport activity
- difference in transport activity factor between wild type and quadruple mutant [2]: two-fold difference
- intracellular accumulation / efflux by ABCB1 [2]: able to limit

SMILES: Nc1ncnc2c1ncn2[C@@H]1O[C@H](COP(=O)(O)OP(=O)([O-])OP(=O)([O-])O)[C@@H](O)[C@H]1O.[Mg+2] [MgATP]
- apparent affinity of ATP (KA) ([3]; absence of Vi): 0.077 ± 0.02 mM
- apparent affinity of ATP (KA) with Vi ([3]; treatment with 0.5 mM Vi): 0.027 ± 0.001 mM
- apparent affinity for MgATP/Vi (KA) ([4]; 0.5 mM Vi): 0.038 ± 0.001 mM
- apparent affinity for MgATP (KA) ([4]; absence of Vi): 1.12 ± 0.6 mM
- apparent affinity (KA) lower than reported KM (wild-type ABCB1 [5]; wild-type ABCB1, KA vs reported KM): 3–4 fold
- apparent affinity of MgATP (KA) (wild-type ABCB1 [5]; wild-type ABCB1, absence of vanadate, UIC2 binding readout, 37°C): 1.56 ± 0.46 mM
- Km (ABCB1): 300 to 500 µM

SMILES: CCOc1ccc(-c2nc3ccc(-c4nc5ccc(N6CCN(C)CC6)cc5[nH]4)cc3[nH]2)cc1 [Hoechst 33342]
- transport activity ([1]; E556M expressing cells): abolished transport activity
- intracellular accumulation / efflux by ABCB1 ([2]; quadruple mutant expressing cells): able to limit
- difference in transport activity factor between wild type and quadruple mutant ([2]; wild type vs quadruple mutant): two-fold difference
- intracellular accumulation / efflux by ABCB1 (wild-type ABCB1 [6]): effectively prevented intracellular accumulation
